{"source": "patent US12533425B2", "about": "“Methods and systems using peptides for targeting and mapping human nerves in image guided surgery, diagnostics and therapeutic delivery” (ALUME BIOSCIENCES, INC., priority 2019, dated 2026)", "key": {"bladder fluorescence": {"test_system": "bladder fluorescence", "test": "In-vivo quenching of FAM-NP41 bladder fluorescence", "design": "species or system mouse", "conditions": "50 mg/kg i.v. plus 30 μl 10 mM intra bladder, 150 nmoles FAM-NP41 2 hours prior", "excerpt": "(§1) FIGS. 21A-21C: Food dyes efficiently quench FAM-NP41 bladder fluorescence. A fluorescent plate reader assay was used to show dose dependent quenching of FAM-NP41 fluorescence. Erythrosine extra bluish (Santa Cruz Biotechnology, Inc.) was the most efficient quencher with >˜80% quenching at 2.5 times dye to fluorescein ratio and >95% quenching at 5× dye to fluorescein ratio (A). Other food dyes tested included Allura Red and Sunset Yellow. To test for quenching in-vivo we administered, by direct iv injection, 50 mg/kg MW 879.76 (˜1.5 μmoles per 25 gm mouse) to mice that had been injected with 150 nmoles of FAM-NP41 2 hours prior. This represents approximately a 10× dye to FAM-NP41 dose. Some bladder fluorescence remained after imaging so additional dye (30 μl, 10 mM Erythrosin extra bluish) was injected directly into the bladder. […] Dye would likely not be needed if this method was used for human patients as bladder catheterization in patients could be started as FAM-NP41 is administered so bladder fluorescence could be washed out."}, "[1]": {"test": "Fluorescent plate reader assay of quenching of FAM-NP41 fluorescence by food dyes", "excerpt": "as §1"}, "sciatic nerve": {"test_system": "sciatic nerve", "test": "In-vivo fluorescence imaging of sciatic nerve in mice after i.v. injection of FAM-labelled peptides", "design": "species or system mouse", "conditions": "450 nmols i.v.", "procedure": "In-vivo fluorescence image of sciatic nerve of 6 month old SKH1-Elite mice injected i.v. with 450 nmols of FAM-HNP401 (A) or FAM-NP41 (B) and imaged on the Lumar imaging scope 2 h post injection. […] Each mouse was injected i.v. with 100 nmol of FAM-HNP401 prior to blood collection at 1 min, 10 min, 20 min, 30 min, 1 h and 2 h timepoints (H).\nIn-vivo fluorescence image of sciatic nerves from 6 month old SKH1 mice that had been previously intravenously injected with 450 nmols of FAM-HNP401 [˜48.4 mg/kg] (A) or FAM-NP41 [˜39 mg/kg] (B). […] Each mouse was injected intravenous with 100 nmol [˜11 mg/kg] of FAM-HNP401 prior to blood collection at 1 min, 10 min, 20 min, 30 min, 1 h and 2 h time points."}, "human sural nerve": {"test_system": "human sural nerve", "test": "Topical application of FAM-labelled peptides on sections of human sural nerve and temporalis muscle", "format": "binding", "conditions": "for nerve binding and nerve to muscle contrast (words): human nerve and temporalis muscle sections; for normalized average signal intensity for nerve binding: normalized to parent FAM-HNP401, topical 100 μM, human sural nerve sections; for effect of truncation on binding and solubility: deletion from C terminus of HNP401", "excerpt": "To determine the affinity of phage selected peptides for binding to human nerve they were chemically synthesized by solid-phase synthesis and labeled with fluorescein at the C-terminus via a GGC linker. Peptides were topically applied to sectioned human sural nerve and human temporalis muscle to determine nerve to muscle contrast. […] To confirm binding and contrast of HNP401 for additional nerve types binding was compared in nerve and muscle with both HNP401 and NP41 on facial brachial plexus nerve (FIG. 9). […] FAM-HNP401 was additionally tested topically on ex-vivo tissue for labeling of mouse facial nerve with surrounding muscle (FIG. 10, J-M).\nTo test the affinity of selected phage display peptides for binding to human nerves, they were chemically synthesized by solid-phase synthesis and labeled with fluorescein at the C-terminus. Peptides were topically applied to sections of surgically harvested human sural nerve and temporalis muscle to determine nerve to muscle contrast for selected peptides and controls (FIG. 23). […] To quantify differential binding to nerve versus muscle, fluorescence signal intensity was measured for ROIs from the perineurium of select nerves and human temporalis muscle.\nTo enhance and attempt to determine the core binding domain of HNP401, systematic deletion of two amino acids from the C or N terminus was performed (see, for example, FIG. 30) followed by binding analysis on human sural nerve sections (FIG. 20). In each case nerve binding and signal intensity was normalized to the parent FAM-HNP401 peptide (FIG. 20J).\nImage J was used to analyze and compare images acquired using the confocal microscope and the Lumar dissecting scope. For each experimental set where probes were compared, we kept the acquisition parameters identical so as to directly compare the data obtained. […] All raw image files for a given experimental cohort were loaded at the same time into Image J as 16-bit tiff images. We then levelled the image for tissue treated with FAM-HNP401. Once these levels were set, the settings are propagated to all images in one step using Image J. The brightest image is set as the benchmark for all other images in the cohort to avoid saturating when the leveling is propagated."}, "[2]": {"test": "Stability of peptides in ex-vivo human plasma (LC-MS)", "conditions": "37° C., 5 min vs 2 hours", "description": "FIGS. 28A-28F: Stability of peptides in ex-vivo human plasma and cerebrospinal fluid from rats. […] An equal volume of 1:1 acetonitrile:water with 2% acetic acid is added to precipitate the protein matter, supernatant is extracted for analysis by LC-MS on a C18 reverse phase column with gradient of 9:1 H2O+0.05% TFA:Acetonitrile+0.05% TFA to 1:9 H2O+0.05% TFA:Acetonitrile+0.05% TFA in 20 min.\nThe bladder was drained with a syringe and sutured to avoid spillage and contamination around prostate. […] Stability of FAM-HNP401 in human plasma at 5 minutes and 2 hours was determined by incubation of peptide dye conjugate in human serum prior to analysis by mass spectrometry."}, "[3]": {"test": "Mass spectroscopy analysis of urine after injection of nerve binding peptides"}, "mouse facial nerve": {"test_system": "mouse facial nerve", "test": "Topical application on ex-vivo mouse facial nerve with surrounding muscle", "format": "binding", "conditions": "topical 375 and 100 μM, ex-vivo tissue"}, "[4]": {"test_system": "autonomic nerves isolated from human prostate glands", "test": "Topical application on sections of nerves from human prostate gland", "format": "binding", "conditions": "topical 100 μM, 10 μm sections, two patients", "description": "FAM-HNP401 and FAM-NP41 were then tested topically for binding to autonomic nerves, isolated from excised prostate glands of two human patients (FIGS. 12 and 13). […] Labelled fiber were confirmed as nerve using anti-neurofilament antibody SMI312 (red) and DAPI (blue) to show nuclear labeling (FIG. 12C). H&E staining was also done to confirm label tissue as nerve (FIG. 12D). Similar staining was obtained for peripheral sensory anti-brachial cutaneous nerve isolated from a human arm (FIG. 12E-H).\nFAM-HNP401 and FAM-NP41 were tested for binding to autonomic nerves, isolated from the prostate glands of two human patients (FIGS. 19 and 29). […] Quantitation was not done because only 2 patient samples were available for testing as nerve resection during radical prostatectomy is only performed in instances of gross capsular invasion. Labelled fibers were confirmed as nerve using anti-neurofilament antibody SMI312 (red) with DAPI (blue) to show nuclear labeling (FIG. 19C). H&E staining also confirmed label tissue as nerve by histology (FIG. 19D). […] Similar staining using FAM-HNP401 was obtained for another sensory nerve (anti-brachial cutaneous) isolated from human arm showing the broad nerve binding activity of HNP401 (FIGS. 19E-H)."}, "[5]": {"test_system": "human laryngeal nerve sections", "test": "Dose response of FAM-HNP401 by topical application on human nerve sections, confocal", "conditions": "low concentration (10 μM)", "procedure": "Determination of optimal dose response by topical application of FAM-HNP401 on human laryngeal nerve sections at final concentration of 375 μM (A), 100 μM (B), 50 μM (C), 10 μM (D) and 1 μM (E), imaged with confocal microscopy with identical parameters and levelled equally for comparison. **brightened 2 fold for viewing.\nDose response data set of FAM-HNP401 on human nerve tissue (FIGS. 25:A-E) was acquired with 488 nm laser line, 10 μm sections on glass at 10× magnification, 0.45 NA air objective lens. Gain set to 40, power set to 3% of laser power, pixel dwell value of 1.2 μs, aperture size of 1.1 μm and a pixel size of 0.3 μm/px with a 2 k by 2 k size image.\nHuman peripheral nerves (typically sural) were obtained from patients undergoing nerve resection procedures. Human nerves from prostate gland of two patients were acquired under Moores Cancer Centre Biorepository IRB protocol number 090401. Tissue were sectioned and mounted on glass slides or Cryojane tape. Tissue sections were placed in a humidifier chamber for 30 min before application of the peptide solution. Peptides were diluted to appropriate concentration in 0.5×HBSS prior to topical application. 50 μl of peptide solution of with known concentration (1 μM to 375 μM) were applied to 10 μm nerve sections on tape or slides and incubated for 30 minutes in a humidifier chamber. After incubation with peptide nerve sections were washed with twice with 0.5×HBSS and once with 1×PBS. A cover-slip was applied and slides were imaged immediately on either a Zeiss Lumar dissecting scope of Nikon A1 confocal microscope. For confocal imaging tissue sections of 10 μm thickness were imaged with 488 nm laser excitation 515 (25) and a 10× air objective and a 0.26 µm/pixel size."}, "[6]": {"test_system": "rat prostate cavernosal nerve", "test": "In-vivo labelling of rat prostate and sciatic nerve", "conditions": "i.v., FAM-labelled peptide", "description": "FIG. 6: Fluorescent labeling of rat prostate cavernosal nerve in live rats.\nEither 150 or 450 nmoles nmoles of fluorescein labeled synthetic peptides were injected intravenously into mice. After a 2 hour waiting period for washout of nonspecific binding, mice were anesthetized and skin incisions were made over the dorsal surface of the hind legs to expose the sciatic nerve. Brightfield and fluorescent images were obtained with a dissecting microscope using Metamorph software (FIG. 1). Quantitation of fluorescence of nerves and adjacent non-nerve tissue was performed with Image J (FIG. 2). Peptides were also topically applied to human nerve sections. […]\nFollowing anesthesia with intra-peritoneal injection of ketamine (80 mg/kg) and midazolam (40 mg/kg), FAM-NP41 or its variants were administered into mice retro-orbitally. […] The autonomic nerve along the cavernosal vessel in the prostate was imaged and recorded using a custom-made surgical imaging system. This system is a modified from Olympus MVX10 scope capable of hi-resolution fluorescence, RGB reflectance and realtime overlay with zoom from 0.6 to 5.7 cm field of view. ImageJ was used for quantitative analysis of nerve contrast for each peptide dye conjugate tested. Images of autonomic nerve in prostate were selected from the recorded files and magnified 300-400% prior to selection of ROI and measurement. […]"}}, "note": "Entries after “also recorded” stand apart in the source; their conditions may differ. Residues, ends and D or L forms follow the SMILES beside them. No end group written: not given here. *: point of attachment. Fluorescein(5-Mal) = O=C1OC2(c3ccc(O)cc3Oc3cc(O)ccc32)c2ccc(N3C(=O)CC(*)C3=O)cc21", "data": [{"molecule": "O=C1OC2(c3ccccc31)c1cc(I)c(O)c(I)c1Oc1c2cc(I)c(O)c1I", "note": "[Erythrosine extra bluish]", "values": [{"measurement": "bladder fluorescence after quencher", "setting": "bladder fluorescence", "value": "near background level"}, {"measurement": "quenching of FAM-NP41 fluorescence", "setting": "[1]; 2.5 times dye to fluorescein ratio", "value": "> 80", "unit": "%"}, {"measurement": "quenching of FAM-NP41 fluorescence", "setting": "[1]; 5× dye to fluorescein ratio", "value": "> 95", "unit": "%"}]}, {"molecule": "CC(=O)N[C@@H](CO)C(=O)NCC(=O)N[C@@H](CCC(N)=O)C(=O)N[C@H](C(=O)N1CCC[C@H]1C(=O)N[C@@H](Cc1c[nH]c2ccccc12)C(=O)N[C@@H](CCC(=O)O)C(=O)N[C@@H](CCC(=O)O)C(=O)N1CCC[C@H]1C(=O)N[C@@H](Cc1ccc(O)cc1)C(=O)N[C@@H](Cc1ccc(O)cc1)C(=O)N[C@H](C(=O)N[C@H](C(=O)N[C@@H](CCCCN)C(=O)N[C@@H](CCCCN)C(=O)N[C@@H](CO)C(=O)N[C@@H](CO)C(=O)NCC(=O)NCC(=O)N[C@@H](CSC1CC(=O)N(c2ccc3c(c2)C(=O)OC32c3ccc(O)cc3Oc3cc(O)ccc32)C1=O)C(N)=O)C(C)C)C(C)C)C(C)C", "note": "(stereo partly shown) [FAM-HNP401] (Ac-SGQVPWEEPYYVVKKSSGGC(Fluorescein(5-Mal))-NH2)", "values": [{"measurement": "nerve to surrounding muscle contrast", "setting": "sciatic nerve; imaged 2 h post injection, SKH1 mice", "value": "5.79±0.81"}, {"measurement": "increase in sciatic nerve fluorescence intensity compared to NP41", "setting": "sciatic nerve; mice", "value": 2.3, "unit": "fold"}, {"measurement": "signal intensity for in-vivo binding to mouse sciatic nerve compared to FAM-NP41", "setting": "sciatic nerve; mice", "value": 2.3, "unit": "×"}, {"measurement": "nerve to muscle contrast", "setting": "human sural nerve; human sural nerve vs temporalis muscle, topical 100 μM, n=4", "value": "3.03±0.57"}, {"measurement": "fluorescent signal intensity of perineurium", "setting": "human sural nerve; topical 100 μM, 10 μm unfixed sections, confocal, n=4", "value": "1374.44±425.96"}, {"measurement": "nerve binding and nerve to muscle contrast (words)", "setting": "human sural nerve; topical 100 μM", "value": "highest contrast"}, {"measurement": "fluorescent signal intensity compared to FAM-NP41", "setting": "human sural nerve; topical 100 μM, human sural nerve", "value": 10.9, "unit": "×"}, {"measurement": "signal for binding human nerve compared to FAM-NP41", "setting": "human sural nerve; topical, human nerve", "value": 10, "unit": "fold"}, {"measurement": "stability in human plasma", "setting": "[2]", "value": "remain intact; also recorded: stable"}, {"measurement": "metabolism of peptide detected in urine", "setting": "[3]", "value": "partially metabolized"}, {"measurement": "labeling of mouse facial nerve versus surrounding muscle", "setting": "mouse facial nerve", "value": "poor contrast; also recorded: did not perform as well as FAM-NP41"}, {"measurement": "fluorescent signal in human autonomic (cavernosal) nerves compared to FAM-NP41", "setting": "[4]", "value": "significantly higher fluorescent signal"}, {"measurement": "structures of nerve bound (confocal imaging)", "setting": "[5]", "value": "binding of peptide to non-axonal structural components of nerve; also recorded: excluded from axons"}, {"measurement": "structures of nerve bound (confocal imaging)", "setting": "[5]; listed as FAM-HMP401", "value": "does not bind axons, but preferentially binds the perineurium"}, {"measurement": "structures of nerve bound (confocal imaging)", "setting": "[5]; listed as HNP401-FAM", "value": "binds epineurium, perineurium and endonerium but not axons"}, {"measurement": "fluorescent labeling of rat prostate and sciatic nerve in live rats", "setting": "[6]", "value": "highlighted"}]}, {"molecule": "Ac-EEPYYVVKKSSGGC [HNP401-N-6, with GGC linker, tested FAM labelled]", "values": [{"measurement": "normalized average signal intensity for nerve binding", "setting": "human sural nerve", "value": "1.0±0.34"}]}, {"molecule": "Ac-PWEEPYYVVKKSSGGC [HNP401-N-4, with GGC linker, tested FAM labelled]", "values": [{"measurement": "normalized average signal intensity for nerve binding", "setting": "human sural nerve", "value": "0.56±0.18"}]}, {"molecule": "Ac-PYYVVKKSSGGC [HNP401-N-8, with GGC linker, tested FAM labelled]", "values": [{"measurement": "normalized average signal intensity for nerve binding", "setting": "human sural nerve", "value": "0.98±0.31"}]}, {"molecule": "Ac-QVPWEEPYYVVKKSSGGC [HNP401-N-2, with GGC linker, tested FAM labelled]", "values": [{"measurement": "normalized nerve to temporalis muscle contrast, increase with respect to FAM-HNP401", "setting": "human sural nerve; human sural nerve vs temporalis muscle", "value": 3, "unit": "fold"}, {"measurement": "normalized average signal intensity for nerve binding", "setting": "human sural nerve", "value": "2.02±0.65"}, {"measurement": "average signal intensity, nerve binding of deletion variants", "setting": "human sural nerve; topical 100 uM FAM labelled, human nerve sections, n=5", "value": "1498.73 (+/−517.63)"}]}, {"molecule": "Ac-SGQVPWEEPYYVVGGC [HNP401-C-4, with GGC linker, tested FAM labelled]", "values": [{"measurement": "effect of truncation on binding and solubility", "setting": "human sural nerve", "value": "reduced dramatically"}, {"measurement": "normalized average signal intensity for nerve binding", "setting": "human sural nerve", "value": "0.49±0.11"}]}, {"molecule": "Ac-SGQVPWEEPYYVVKKGGC [HNP401-C-2, with GGC linker, tested FAM labelled]", "values": [{"measurement": "effect of truncation on binding and solubility", "setting": "human sural nerve", "value": "tolerated"}]}, {"molecule": "SEFPRSWDMETN [HNP301]", "values": [{"measurement": "fluorescent labeling of rat prostate and sciatic nerve in live rats", "setting": "[6]", "value": "not showing as much contrast"}]}, {"molecule": "carboxyfluorescein [reference compound]", "values": [{"measurement": "nerve binding and nerve to muscle contrast (words)", "setting": "human sural nerve; topical 100 μM", "value": "only weak non-specific binding"}, {"measurement": "nerve binding and nerve to muscle contrast (words)", "setting": "human sural nerve; topical 100 μM, listed as Carboxyfluorescein", "value": "low signal and non-specific binding"}]}]}
